{"source": "patent US11117898B2", "about": "“Pyrazolo-heteroaryl derivative, preparation method and medical use thereof” (Jiangsu Hengrui Medicine Co., Ltd., priority 2016, dated 2021)", "key": {"human TLR7": {"molecular_target": "human TLR7 (Homo sapiens (Human), UniProt Q9NYK1)", "sequence (Q9NYK1 27-1049)": "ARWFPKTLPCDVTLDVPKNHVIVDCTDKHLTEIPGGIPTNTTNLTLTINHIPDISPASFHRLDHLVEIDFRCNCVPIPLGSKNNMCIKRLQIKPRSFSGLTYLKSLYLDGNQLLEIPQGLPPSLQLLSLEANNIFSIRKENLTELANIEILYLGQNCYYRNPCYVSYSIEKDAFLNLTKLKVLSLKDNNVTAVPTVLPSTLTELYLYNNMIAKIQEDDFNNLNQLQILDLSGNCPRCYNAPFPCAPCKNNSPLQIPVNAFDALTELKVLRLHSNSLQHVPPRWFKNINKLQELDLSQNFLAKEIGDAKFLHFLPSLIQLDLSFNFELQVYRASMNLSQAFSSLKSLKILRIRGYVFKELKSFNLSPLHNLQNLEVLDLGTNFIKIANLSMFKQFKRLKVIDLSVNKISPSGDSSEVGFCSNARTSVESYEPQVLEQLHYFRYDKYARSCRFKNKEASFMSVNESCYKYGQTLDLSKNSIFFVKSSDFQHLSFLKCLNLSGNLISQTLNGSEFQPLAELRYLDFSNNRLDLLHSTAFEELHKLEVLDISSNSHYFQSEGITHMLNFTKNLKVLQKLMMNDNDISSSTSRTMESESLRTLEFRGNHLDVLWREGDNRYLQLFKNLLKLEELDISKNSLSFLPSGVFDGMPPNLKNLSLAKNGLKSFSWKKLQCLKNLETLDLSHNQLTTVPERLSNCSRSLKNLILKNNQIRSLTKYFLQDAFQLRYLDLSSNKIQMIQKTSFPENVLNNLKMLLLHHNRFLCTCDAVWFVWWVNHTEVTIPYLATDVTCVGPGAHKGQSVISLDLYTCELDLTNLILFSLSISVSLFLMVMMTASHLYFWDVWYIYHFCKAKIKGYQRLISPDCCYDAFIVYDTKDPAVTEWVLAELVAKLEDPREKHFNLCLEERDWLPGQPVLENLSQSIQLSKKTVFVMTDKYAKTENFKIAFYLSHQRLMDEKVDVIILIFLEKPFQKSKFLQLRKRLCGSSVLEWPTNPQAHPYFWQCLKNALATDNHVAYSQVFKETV", "experiment": "Agonistic activity on human TLR7 in HEK-Blue hTLR7 stably transfected cells", "format": "cell-based", "conditions": "for EC50: OD 620 nm", "procedure": "The activation effect of the compounds of the present invention on the hTLR7 protein expressed by the HEK-Blue™ hTLR7 stably transfected cells was determined by the following experimental method:\n(§1) A bag of HEK-Blue detection dry powder was dissolved in 50 ml of water free of endotoxin, and the solution was then placed in an incubator at 37° C. for 10 minutes followed by sterile filtration to prepare a HEK-Blue detection medium. The compound was firstly formulated into a 20 mM stock solution, then diluted with pure DMSO to a maximum concentration of 6×10^6 nM, and a total of 10 points were obtained by a 3-fold gradient dilution.\n(§2) The above formulated compound was firstly diluted 20-fold with the medium, then 20 μl of the diluted compound were added to each well. The supernate was removed from the HEK-Blue™ hTLR7 cells, to which 2-5 ml of pre-warmed PBS were then added. The cells were placed in an incubator for 1-2 minutes, gently pipetted, and counted by trypan blue staining. The cells were re-suspended in the HEK-Blue detection medium to adjust the concentration to 2.2×10^5 cells/ml. 180 μl of cells were added to the above 96-well plate already added with 20 μl of the compounds, and incubated at 37° C. for 6-16 hours.\nThe activation effect of the compounds of the present invention on human TLR7 can be determined by the above test, and the obtained EC50 values are shown in Table 1."}, "human TLR8": {"molecular_target": "human TLR8 (Homo sapiens (Human), UniProt Q9NR97)", "sequence (Q9NR97 27-1041)": "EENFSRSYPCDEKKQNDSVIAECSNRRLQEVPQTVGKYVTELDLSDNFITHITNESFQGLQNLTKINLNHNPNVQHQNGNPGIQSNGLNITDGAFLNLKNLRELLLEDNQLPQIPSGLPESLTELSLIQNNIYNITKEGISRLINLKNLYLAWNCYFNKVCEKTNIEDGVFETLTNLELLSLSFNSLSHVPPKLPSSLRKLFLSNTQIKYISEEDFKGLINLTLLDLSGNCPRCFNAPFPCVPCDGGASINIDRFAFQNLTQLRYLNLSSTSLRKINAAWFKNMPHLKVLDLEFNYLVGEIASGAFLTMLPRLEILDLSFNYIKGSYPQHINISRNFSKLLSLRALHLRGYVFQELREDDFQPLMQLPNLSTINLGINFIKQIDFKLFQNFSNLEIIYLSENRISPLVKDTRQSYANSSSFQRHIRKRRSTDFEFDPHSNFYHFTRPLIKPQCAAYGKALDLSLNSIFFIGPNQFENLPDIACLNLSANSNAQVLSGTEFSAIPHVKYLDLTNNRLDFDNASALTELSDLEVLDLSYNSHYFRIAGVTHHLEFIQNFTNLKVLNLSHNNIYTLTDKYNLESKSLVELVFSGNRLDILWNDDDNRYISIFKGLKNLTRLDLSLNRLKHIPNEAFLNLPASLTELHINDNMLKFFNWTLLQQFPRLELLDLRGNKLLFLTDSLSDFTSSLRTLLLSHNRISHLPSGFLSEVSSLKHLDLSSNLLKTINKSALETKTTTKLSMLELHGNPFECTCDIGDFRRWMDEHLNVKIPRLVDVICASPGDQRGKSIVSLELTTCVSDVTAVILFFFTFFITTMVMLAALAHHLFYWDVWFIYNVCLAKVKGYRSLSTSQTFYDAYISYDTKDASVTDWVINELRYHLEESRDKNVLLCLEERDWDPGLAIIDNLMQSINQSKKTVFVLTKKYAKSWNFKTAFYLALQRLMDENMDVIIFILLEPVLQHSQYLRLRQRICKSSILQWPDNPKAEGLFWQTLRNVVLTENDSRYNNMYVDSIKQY", "experiment": "Agonistic activity on human TLR8 in HEK-Blue hTLR8 stably transfected cells", "format": "cell-based", "conditions": "for EC50: OD 620 nm", "procedure": "The activation effect of the compounds of the present invention on the hTLR8 protein expressed by the HEK-Blue™ hTLR8 stably transfected cells was determined by the following experimental method:\nas §1, with “dilution. The compound was firstly diluted 20-fold with the medium, then 20 μl of the diluted compound were added to each well.” for “dilution.”\nas §2, with “The” for “The above formulated compound was firstly diluted 20-fold with the medium, then 20 μl of the diluted compound were added to each well. The”, “hTLR8” for “hTLR7”\nThe activation effect of the compounds of the present invention on human TLR8 can be determined by the above test, and the obtained EC50 values are shown in Table 2."}, "CYP3A4 [1]": {"molecular_target": "T1, CYP3A4 (Homo sapiens (Human), UniProt P08684)", "T1 sequence (P08684 whole entry)": "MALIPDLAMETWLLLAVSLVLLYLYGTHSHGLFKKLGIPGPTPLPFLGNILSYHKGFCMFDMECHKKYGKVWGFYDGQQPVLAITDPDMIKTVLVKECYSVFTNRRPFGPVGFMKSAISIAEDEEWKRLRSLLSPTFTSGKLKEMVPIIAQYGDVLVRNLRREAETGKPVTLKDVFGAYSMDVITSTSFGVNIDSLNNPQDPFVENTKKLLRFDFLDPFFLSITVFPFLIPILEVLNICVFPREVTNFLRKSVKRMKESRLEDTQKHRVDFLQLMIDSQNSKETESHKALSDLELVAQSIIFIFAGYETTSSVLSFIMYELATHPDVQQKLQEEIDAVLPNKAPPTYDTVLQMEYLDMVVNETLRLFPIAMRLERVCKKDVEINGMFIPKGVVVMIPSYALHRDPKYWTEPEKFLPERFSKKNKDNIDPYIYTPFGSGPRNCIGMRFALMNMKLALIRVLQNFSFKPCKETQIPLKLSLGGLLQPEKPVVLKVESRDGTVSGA", "experiment": "Inhibition of the midazolam metabolite site of CYP3A4 in human liver microsomes", "format": "in vitro ADME", "conditions": "probe substrate midazolam", "procedure": "The effect of the compounds of the present invention on the enzyme activity of midazolam metabolite site of CYP3A4 in human liver microsomes was determined by the following experimental method:\n(§3) 100 mM PBS buffer was formulated, which was then used to formulate 2.5 mg/ml microsome solution and 5 mM NADPH solution. The 5× concentration of the compound working solution was diluted with PBS gradient (150, 50, 15, 5, 1.5, 0.15, 0.015, 0 μM). The 5× concentration of ketoconazole working solution was diluted with PBS gradient (150, 50, 15, 5, 1.5, 0.15, 0.015, 0 μM). Dextromethorphan working solution was diluted with PBS to a concentration of 50 μM.\n(§4) 20 μl of 2.5 mg/ml microsome solution, 20 μl of 50 μM testosterone working solution, 20 μl of MgCl2 solution and 20 μl of the compound working solution (150, 50, 15, 5, 1.5, 0.15, 0.015, 0 μM, different reaction systems for each concentration) were taken respectively and mixed well. For the positive control group, the compound was replaced with the same concentration of ketoconazole. The mixture together with 5 mM NADPH solution were pre-incubated at 37° C. for 5 minutes. After 5 minutes, 20 μl of NADPH were added to each well, the reaction was started and incubated for 30 minutes. All the incubated samples were present in duplicate. After 30 minutes, 250 μl of acetonitrile containing internal standard were added to all samples, mixed well, shaken at 800 rpm for 10 minutes, and then centrifuged at 3700 rpm for 10 minutes. 80 μl of the supernatant were taken and analyzed by LC-MS/MS.\nThe data were calculated by Graphpad Prism to obtain the IC50 values of the compounds on the midazolam metabolite site of CYP3A4."}, "CYP2D6": {"molecular_target": "CYP2D6 (Homo sapiens (Human), UniProt P10635)", "sequence (P10635 whole entry)": "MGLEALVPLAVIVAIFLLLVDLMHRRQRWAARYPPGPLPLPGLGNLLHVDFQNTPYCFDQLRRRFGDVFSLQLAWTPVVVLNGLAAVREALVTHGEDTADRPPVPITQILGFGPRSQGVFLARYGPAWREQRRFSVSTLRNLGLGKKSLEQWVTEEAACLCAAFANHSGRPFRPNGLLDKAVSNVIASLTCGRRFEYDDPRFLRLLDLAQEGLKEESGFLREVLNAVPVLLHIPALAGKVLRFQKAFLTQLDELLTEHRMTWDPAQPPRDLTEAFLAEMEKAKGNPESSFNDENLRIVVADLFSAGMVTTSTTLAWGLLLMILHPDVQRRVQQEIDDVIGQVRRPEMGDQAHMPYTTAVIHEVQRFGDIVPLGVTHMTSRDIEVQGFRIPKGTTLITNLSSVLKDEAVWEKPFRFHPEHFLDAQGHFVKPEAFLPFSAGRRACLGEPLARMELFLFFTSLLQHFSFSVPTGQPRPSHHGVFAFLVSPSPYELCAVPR", "experiment": "Inhibition of the enzyme activity of CYP2D6 in human liver microsomes", "format": "in vitro ADME", "conditions": "probe substrate dextromethorphan", "procedure": "The effect of the compounds of the present invention on the enzyme activity of CYP2D6 in human liver microsomes was determined by the following experimental method:\nas §3, with “quinidine” for “ketoconazole”\nas §4, with “quinidine.” for “ketoconazole.”\nThe data were calculated by Graphpad Prism to obtain the IC50 values of the compounds on the metabolite site of CYP2D6."}, "CYP3A4 [2]": {"molecular_target": "T1, CYP3A4", "experiment": "Inhibition of the testosterone metabolite site of CYP3A4 in human liver microsomes", "format": "in vitro ADME", "conditions": "probe substrate testosterone", "procedure": "The effect of the compounds of the present invention on the enzyme activity of testosterone metabolite site of CYP3A4 in human liver microsomes was determined by the following experimental method:\nas §3, §4\nThe data were calculated by Graphpad Prism to obtain the IC50 values of the compounds on the testosterone metabolite site of CYP3A4."}, "PBMC": {"test_system": "PBMC", "experiment": "Stimulation of the secretion of IFN-α from peripheral blood mononuclear cells (PBMC)", "format": "cell-based, human", "conditions": "minimal effective concentration: lowest concentration giving cytokine level at least 3 times the minimum detection limit; 24 hours incubation", "procedure": "The ability of the compounds of the present invention to stimulate the secretion of IFN-α from PBMC was determined by the following experimental method:\nThe compound was diluted with pure DMSO to a maximum concentration of 5 mM, and a total of 9 points were obtained by a 4-fold gradient dilution. 4 μl of the compound were then added to 196 μl of RMPI 1640 medium containing 10% FBS and mixed well. 50 μl of the mixture were taken from each well and added to a new 96-well plate.\nAll reagents were equilibrated to room temperature. 60 ml of blood and PBS+2% FBS were added to a 250 ml culture flask, gently pipetted, mixed well and diluted. 15 ml of lymphocyte separation solution Ficoll-Paque PREMIUM and then 30 ml of diluted blood were added to a 50 ml PBMC centrifuge tube SepMate™-50. The mixture was centrifuged at 1200 g for 10 minutes at room temperature. The supernatant was taken and then centrifuged at 300 g for 8 minutes. The cells were re-suspended in the RMPI 1640 medium containing 10% FBS and counted, and the number of PBMCs was adjusted to 3.33×10^6 cells/ml. 150 μl of the cell solution were added to the plate added with the compound, and incubated in an incubator at 37° C., in 5.0% CO2 for 24 hours.\nThe cell culture plate was placed in a centrifuge, and centrifuged at 1200 rpm for 10 minutes at room temperature. 150 μl of the supernatant were taken from each well. The reagents in the human IFN-α kit were first equilibrated to normal temperature. The anti-IFN-α-Eu^3+-Cryptate conjugate and the anti-IFN-α-d2-conjugate were formulated in the dark according to the kit instructions, and both of them were mixed well with the conjugate buffer at a ratio of 1:40. 16 μl of the supernatant obtained by centrifugation were then added to each well. 2 μl of anti-IFN-α-Eu^3+-Cryptate conjugate and anti-IFN-α-d2-conjugate formulated just now were then added to each well. The plate was shaken and mixed well, and incubated in the dark at room temperature for 3 hours.\nThe PHERAStar was read in the HTRF mode. The lowest compound concentration that stimulated cytokine levels of at least 3 times higher than the minimum detection limit was defined as the minimal effective concentration (MEC) value of the compound in the cytokine stimulation test.\nThe ability of the compounds of the present invention to stimulate the secretion of IFN-α from PBMC was determined by the above test, and the obtained MEC values are shown in Table 3."}}, "data": [{"smiles": "CCCNC(=O)c1nc(N)c2cnn(Cc3ccc(CN4CCCC4)cc3)c2n1", "note": "[Example 11, 4-Amino-N-propyl-1-(4-(pyrrolidin-1-ylmethyl)benzyl)-1H-pyrazolo[3,4-d]pyrimidine-6-carboxamide]", "values": [{"measurement": "Emax", "setting": "human TLR7", "value": 85, "unit": "%"}, {"measurement": "EC50", "setting": "human TLR7", "value": 0.335, "unit": "µM"}, {"measurement": "Emax", "setting": "human TLR8", "value": 0, "unit": "%"}, {"measurement": "EC50", "setting": "human TLR8", "value": "> 30", "unit": "µM"}]}, {"smiles": "CCCCNc1nc(N)c2cnn(Cc3ccc(CN4CCCC4)cc3)c2n1", "note": "[Example 10, N^6-Butyl-1-(4-(pyrrolidin-1-ylmethyl)benzyl)-1H-pyrazolo[3,4-d]pyrimidine-4,6-diamine]", "values": [{"measurement": "Emax", "setting": "human TLR7", "value": 79, "unit": "%"}, {"measurement": "EC50", "setting": "human TLR7", "value": 0.349, "unit": "µM"}, {"measurement": "Emax", "setting": "human TLR8", "value": 0, "unit": "%"}, {"measurement": "EC50", "setting": "human TLR8", "value": "> 30", "unit": "µM"}]}, {"smiles": "CCCCC(=O)c1nc(N)c2cnn(Cc3ccc(CN4CCCC4)cc3)c2n1", "note": "[Example 12]", "values": [{"measurement": "IC50", "setting": "CYP3A4 [1]", "value": 16, "unit": "µM"}, {"measurement": "Emax", "setting": "human TLR7", "value": 78, "unit": "%"}, {"measurement": "EC50", "setting": "human TLR7", "value": 0.388, "unit": "µM"}, {"measurement": "Emax", "setting": "human TLR8", "value": 5, "unit": "%"}, {"measurement": "EC50", "setting": "human TLR8", "value": "> 30", "unit": "µM"}, {"measurement": "IC50", "setting": "CYP2D6", "value": 16, "unit": "µM"}, {"measurement": "IC50", "setting": "CYP3A4 [2]", "value": "> 30", "unit": "µM"}]}, {"smiles": "CCCCOc1nc(N)c2cnn(Cc3ccc(CN4CCCC4)c(F)c3)c2n1", "note": "[Example 9, 6-Butoxy-1-(3-fluoro-4-(pyrrolidin-1-ylmethyl)benzyl)-1H-pyrazolo[3,4-d]pyrimidin-4-amine]", "values": [{"measurement": "Emax", "setting": "human TLR7", "value": 96, "unit": "%"}, {"measurement": "EC50", "setting": "human TLR7", "value": 0.128, "unit": "µM"}]}, {"smiles": "COCC(C)Oc1nc(N)c2cnn(Cc3ccc(CN4CCCC4)cc3)c2n1", "note": "(stereo not shown) [Example 8, 6-((1-Methoxypropan-2-yl)oxy)-1-(4-(pyrrolidin-1-ylmethyl)benzyl)-1H-pyrazolo[3,4-d]pyrimidin-4-amine]", "values": [{"measurement": "Emax", "setting": "human TLR7", "value": 104, "unit": "%"}, {"measurement": "EC50", "setting": "human TLR7", "value": 0.217, "unit": "µM"}, {"measurement": "Emax", "setting": "human TLR8", "value": 2, "unit": "%"}, {"measurement": "EC50", "setting": "human TLR8", "value": "> 30", "unit": "µM"}]}, {"smiles": "CCCCOc1nc(N)c2cnn(Cc3cccc(CN4CCCCC4)c3)c2n1", "note": "[Example 6, 6-Butoxy-1-(3-(piperidin-1-ylmethyl)benzyl)-1H-pyrazolo[3,4-d]pyrimidin-4-amine]", "values": [{"measurement": "IC50", "setting": "CYP3A4 [1]", "value": 10, "unit": "µM"}, {"measurement": "Emax", "setting": "human TLR7", "value": 91, "unit": "%"}, {"measurement": "EC50", "setting": "human TLR7", "value": 0.233, "unit": "µM"}, {"measurement": "Emax", "setting": "human TLR8", "value": 35, "unit": "%"}, {"measurement": "EC50", "setting": "human TLR8", "value": "> 6", "unit": "µM"}, {"measurement": "IC50", "setting": "CYP2D6", "value": 10, "unit": "µM"}, {"measurement": "IC50", "setting": "CYP3A4 [2]", "value": 3, "unit": "µM"}]}, {"smiles": "CCCCOc1nc(N)c2cnn(Cc3cccc(CN4CCC4)c3)c2n1", "note": "[Example 5, 1-(3-(Azetidin-1-ylmethyl)benzyl)-6-butoxy-1H-pyrazolo[3,4-d]pyrimidin-4-amine]", "values": [{"measurement": "MEC to stimulate the secretion of IFN-α from PBMC", "setting": "PBMC", "value": 41, "unit": "nM"}]}, {"smiles": "CCCCOc1nc(N)c2cnn(Cc3ccc(CN4CCCC4)cc3)c2n1", "note": "[Example 1, 6-Butoxy-1-(4-(pyrrolidin-1-ylmethyl)benzyl)-1H-pyrazolo[3,4-d]pyrimidin-4-amine]", "values": [{"measurement": "Emax", "setting": "human TLR7", "value": 100, "unit": "%"}, {"measurement": "Emax", "setting": "human TLR8", "value": 8, "unit": "%"}, {"measurement": "EC50", "setting": "human TLR8", "value": "> 30", "unit": "µM"}, {"measurement": "MEC to stimulate the secretion of IFN-α from PBMC", "setting": "PBMC", "value": 6, "unit": "nM"}, {"measurement": "IC50", "setting": "CYP2D6", "value": "> 30", "unit": "µM"}]}]}
